Assay results as given in patent publication US10864201B2, “Heteroaromatic compounds as Vanin inhibitors” (Boehringer Ingelheim International GmbH, priority 2018, dated 2020).
pIC50: −log10 of the molar value.

Key:
[1] = molecular target: FLAG-tagged Vanin-1 (AA 22-493, T26I) (Homo sapiens (Human), UniProt O95497, T26I); assay: Vanin-1 enzymatic assay; format: biochemical; conditions: formation of pantothenic acid from D-pantethine (3 μM), RapidFire MS; geometric mean in case of multiple measurements; read-out: VNN 1 IC50
Method: The test compounds are dissolved in 100% DMSO at a concentration of 10 mM and in a first step diluted in DMSO to a concentration of 5 mM, followed by serial dilution steps in 100% DMSO. Dilution factor and number of dilution steps may vary according to needs. Typically 8 different concentrations by 1:5 dilutions are prepared, a further intermediate dilutions of the substances is carried out with assay buffer resulting in 1% final DMSO concentration in the assay.
0.1 nM of FLAG-tagged Vanin-1 (AA 22-493, T26I, produced internally) and test compounds are incubated at room temperature for 20 minutes in assay buffer (1 mM DTT, 0.0025% Brij-35, 50 mM HEPES, pH7.5). D-Pantethine (Sigma, Cat #P2125-5G) in assay buffer is added (final concentration 3 μM) and incubated for additional 30 minutes at room temperature. Total assay volume typically is 40 μl but might be adjusted according to needs. Reaction is stopped by adding equal volume of stop solution as the reaction mixture to reach 100 nM HD-pantothenic acid (as an internal standard) and 1% TFA. Assay plates are centrifuged for 2 minutes and the formation of pantothenic acid is detected by RapidFire Mass Spectrometry (mobile phase A: 0.1% formic acid and 0.01% trifluoroacetic acid in water; mobile phase B: 47.5% acetonitrile, 47.5% methanol, 0.1% formic acid and 0.01% trifluoroacetic acid in water) using a C18, 12 μL cartridge (Agilent Cat #G9205A).
The values given in Table I result from measurements of one or more samples. In case of multiple measurements the geometric mean values are given.

[2] = system: Pantetheinase (vanin); assay: Human Whole Blood assay; format: cell-based; conditions: formation of pantothenic acid after pantethine supplementation, RapidFire MS, read-out: HWB IC50
Method: Human Whole Blood assay: Pantetheinase (vanin) converts panteheine into pantothenic acid and cysteamine. Accordingly, in the described protocol vanin activity is quantified by formation of pantothenic acid after pantetheine supplementation via pantethine. The assay is applicable to identify vanin inhibitors. Compound stocks were dissolved in DMSO at 10 mM. Further dilutions were performed in RPMI 1640 medium (Gibco, #A-10491-01) and final concentrations in the assay were 0.032 nM-500 nM.
Human blood was drawn into a blood bag (1% heparin, 50 I.E./mL). Blood was aliquoted into cavities of 96-deep-well plates at 290 μL and mixed with 10 μL compound solution or vehicle (30 sec at 1400 rpm on a shaker). Equilibration followed at room temperature, 250 rpm and for 30 min. The assay was started by adding 10 μL of substrate solution (20 μM pantethine in 1 mM DTT, 0.0025% Brij-35, 50 mM HEPES, pH7.5) to each well, except for some blank wells which received […] substrate buffer (1 mM DTT, 0.0025% Brij-35, 50 mM HEPES, pH7.5) only. Samples were thoroughly shaken (30 sec, 1400 rpm) and reaction was allowed to take place at room temperature, 250 rpm and for 5 min. The reaction was stopped by addition of a vanin tool inhibitor in excess (BI-1 total conc. 10 μM). Centrifugation of the plate followed at 4° C., 665 G for 10 min. Then the blood plasma samples (100 μL) were transferred into another 96-deep-well plate and proteins were precipitated (5 min on ice) by adding 100 μL of ice cold precipitation solution (1 μM labelled pantothenic acid (di-β-alanine-13C6,15N2 calcium salt, Sigma, #705837) in acetonitrile). Afterwards the plate was centrifuged (4° C., 3220 G, 10 min) and supernatants (50 μL) were collected into another 96-deep-well plate and mixed (10 sec, 1400 rpm) with 150 μL ice cold formic acid (0.1%, Carl Roth GmbH+Co.KG, #CP03.1). The formation of pantothenic acid is detected by RapidFire Mass Spectrometry. A TripleQuad 6500+ (ABSciex, Germany) was equipped with an LC-1290 system, a RapidFire autosampler (Agilent, Germany) and a C18 cartridge Type C 12 μL (Agilent Cat #G9526-80000). Mobile phase A was consisting of 0.09% formic acid and 0.01% trifluoroacetic acid in water and mobile phase B of 0.09% formic acid and 0.01% trifluoroacetic acid in acetonitrile/methanol/water=47.5/47.5/5.

FLAG-tagged Vanin-1 (AA 22-493, T26I), sequence (O95497 22-493 T26I): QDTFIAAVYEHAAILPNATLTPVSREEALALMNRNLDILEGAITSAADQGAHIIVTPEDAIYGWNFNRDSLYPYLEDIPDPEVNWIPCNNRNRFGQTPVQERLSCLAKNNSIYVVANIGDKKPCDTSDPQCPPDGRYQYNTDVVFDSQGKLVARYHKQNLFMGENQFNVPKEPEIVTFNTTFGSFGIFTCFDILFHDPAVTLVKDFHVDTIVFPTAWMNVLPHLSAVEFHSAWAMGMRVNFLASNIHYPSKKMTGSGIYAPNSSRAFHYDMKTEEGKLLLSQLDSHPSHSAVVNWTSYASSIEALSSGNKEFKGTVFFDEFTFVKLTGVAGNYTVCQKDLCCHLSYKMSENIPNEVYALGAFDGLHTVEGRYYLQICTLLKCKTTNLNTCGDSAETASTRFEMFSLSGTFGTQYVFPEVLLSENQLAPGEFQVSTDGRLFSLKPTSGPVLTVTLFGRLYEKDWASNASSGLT

Row | pIC50 [1] | pIC50 [2] | Structure (SMILES)
1 | 9.22 | 7.99 | C[C@]1(c2ccc(F)cc2)Cc2cc(C(=O)N3CC4(CCOCC4)C3)cnc2N1 [Example 5.6]
2 | 9.22 | 8.55 | CN(C(=O)C1CC(F)(F)C1)[C@H]1CCN(C(=O)c2cnc3c(c2)CC(C)(C)N3)C1 [Example 2.4]
3 | 9.30 | 7.90 | CC(=O)N(C)[C@H]1CCN(C(=O)c2cnc3c(c2)CCC(C)(C)N3)C1 [Example 11.6]
4 | 10.00 | 8.70 | CC(=O)N(C)[C@H]1CCN(C(=O)c2cnc3c(c2)C[C@](C)(c2cccc(Cl)c2)N3)C1 [Example 7.2]
5 | 10.00 | 8.82 | C[C@]1(c2ccc(F)cc2)Cc2cc(C(=O)N3CC[C@H](N4CCCC4=O)C3)cnc2N1 [Example 5.3]
6 | 9.15 | 8.28 | CC1(C)CCc2cc(C(=O)N3CC[C@H](N4CCCC4=O)C3)cnc2N1 [Example 11.8]
7 | 8.82 | 7.94 | CC1(C)Cc2cc(C(=O)N3CC[C@H](N4CCCC4=O)C3)cnc2N1 [Example 1.2]
8 | 9.70 | 8.68 | CC(=O)N(C)[C@H]1CCN(C(=O)c2cnc3c(c2)C[C@](C)(c2ccccc2)N3)C1 [Example 9.3]
9 | 10.00 | 8.85 | CC(=O)N(C)[C@H]1CCN(C(=O)c2cnc3c(c2)C[C@](C)(c2cccc(F)c2)N3)C1 [Example 4.3]
10 | 10.00 | 8.72 | C[C@]1(c2cccc(Cl)c2)Cc2cc(C(=O)N3CC[C@H](N4CCOC4=O)C3)cnc2N1 [Example 7.4]
11 | 9.30 | 8.24 | CCC1(C)CCc2cc(C(=O)N3CC[C@H](N(C)C(C)=O)C3)cnc2N1 (stereo partly shown) [Example 11.12]
12 | 8.96 | 8.02 | CN(C(=O)C1(C#N)CC1)[C@H]1CCN(C(=O)c2cnc3c(c2)CC(C)(C)N3)C1 [Example 2.2]
13 | 9.70 | 8.54 | CN(c1ncccn1)[C@H]1CCN(C(=O)c2cnc3c(c2)CCC(C)(C)N3)C1 [Example 11.3]
14 | 8.64 | 7.42 | CN(c1ncccn1)[C@H]1CCN(C(=O)c2cnc3c(c2)CC(C)(C)N3)C1 [Example 3.1, N-[(3S)-1-{2,2-Dimethyl-1H,2H,3H-pyrrolo[2,3-b]pyridine-5-carbonyl}pyrrolidin-3-yl]-N-methylpyrimidin-2-amine]
15 | 10.00 | 8.42 | C[C@]1(c2ccc(Cl)cc2)Cc2cc(C(=O)N3CC[C@H](N4CCCC4=O)C3)cnc2N1 [Example 8.3]
16 | 9.22 | 7.97 | CN(C(=O)C1CCC1)[C@H]1CCN(C(=O)c2cnc3c(c2)CCC(C)(C)N3)C1 [Example 11.10]
17 | 9.40 | 8.44 | C[C@]1(c2ccc(F)cc2)Cc2cc(C(=O)N3CCC4(CCOCC4)C3)cnc2N1 [Example 5.1, 2-[(2R)-2-(4-Fluorophenyl)-2-methyl-1H,2H,3H-pyrrolo[2,3-b]pyridine-5-carbonyl]-8-oxa-2-azaspiro[4.5]decane]
18 | 9.05 | 7.94 | CN(C(=O)C1(C)CCC1)[C@H]1CCN(C(=O)c2cnc3c(c2)CCC(C)(C)N3)C1 [Example 11.4]
19 | 10.00 | 8.82 | C[C@]1(c2ccc(F)cc2)Cc2cc(C(=O)N3CC[C@H](N4CCOC4=O)C3)cnc2N1 [Example 5.2]

Row | Structure (SMILES) | pIC50 [1] | pIC50 [2]
20 | CC(=O)N(C)[C@H]1CCN(C(=O)c2cnc3c(c2)C[C@](C)(c2ccc(Cl)cc2)N3)C1 [Example 9.1, N-[(3S)-1-[(2R)-2-(4-Chlorophenyl)-2-methyl-1H,2H,3H-pyrrolo[2,3-b]pyridine-5-carbonyl]pyrrolidin-3-yl]-N-methylacetamide] | 10.00 | 8.52
